These results are taken from US4855308A, “Method of treating senile cognitive decline with N'-substituted aminopyridine adrenergic agents” (Warner-Lambert Company, priority 1987, dated 1989).

The term IC50 denotes the concentration that inhibits the measured activity by half. For orientation: minimal effective dose means the smallest amount tested that counted as effective.

The test system of assay [1] is scopolamine-induced swimming hyperactivity. The experiment in a line: scopolamine induced swimming test (SIS), reversal of scopolamine-induced swimming hyperactivity. The class given is in vivo, laboratory rats (b65); mice (b66). Conditions: for inhibition in vivo at 0.32 mg/kg / inhibition in vivo at 3.2 mg/kg / inhibition in vivo at 32 mg/kg: Rattus norvegicus; for inhibition in vivo at 0.32 mg/kg: read-out: Percent Reversal Swimming Hyperactivity, Dose 0.32 mg/kg, SC; for inhibition in vivo at 3.2 mg/kg: read-out: Percent Reversal Swimming Hyperactivity, Dose 3.2 mg/kg, SC; for inhibition in vivo at 32 mg/kg: read-out: Percent Reversal Swimming Hyperactivity, Dose 32 mg/kg, SC; for reversal of scopolamine swimming hyperactivity: scopolamine-treated rats. The protocol: The biological activity of compounds of the present invention was evaluated using the "scopolamine induced swimming test" (SIS). This screen evaluated the ability of the test compounds to reverse the hyperactive swimming behavior of laboratory rats given scopolamine. in this test, untreated rats will generally swim between 20 to 30 meters during a five-minute test period. […] We have discovered unexpectedly that α2-adrenergic antagonists including the compounds in this application also reverse this swimming hyperactivity, perhaps through indirect stimulation of the cholinergic system.
SIS values are reported as the percent reversal of scopolamine, and are determined as follows: [formula] where U, SDT, and ST represent, respectively, the mean activity level in meters swum of untreated, scopolamine-and-drug-treated, and scopolamine-treated mice.

Assay [2] deals with α2-adrenergic binding site. Description: binding at the α2-adrenergic binding site. Conditions: for α1/α2: ratio of IC50 α1/α2; for IC50: read-out: α2 IC50 (Nanomolar). Here is the method:
The α2 binding sites are presynaptic and are involved in the control of release of norepinephrine. A compound which acts selectively as an α2-adrenergic antagonist acts to increase noradrenergic activity. Such increases in noradrenergic activity are related to improved cognitive function in animals.
(§1) The binding of representative compounds of this invention at the α1-adrenergic binding site was measured using the protocol described by Hornung, R., et al, Archiv. Pharm., 308:223 (1979). Similarly, the binding at the α2:adrenergic binding site was measured using the method of Rouot, B. R., et al, Life Sci., 25: 769 (1979). The data are presented in Table 2 and illustrate the α2 selectivity of the compounds.

Assay [3] has as its target α1-adrenergic binding site. Description: binding at the α1-adrenergic binding site. The following applies: read-out: α1 IC50 (Nanomolar). The protocol:
as §1

For assay [4], the system named is spatial working memory in hippocamally-deficient mice. The experiment in a line: Mouse Water Maze (MWM) test. The assay is classed as in vivo, laboratory mice. The following applies: read-out: minimal effective dose (MED). Here is the method:
This compound was tested in the Mouse Water Maze (MWM) test which is a direct test of spatial cognitive skill in laboratory mice. This test, which is described in Morris, R., J. Neurosci. Meth., 11: 47-60 (1984), measures the effect of a test drug on spatial working memory in hippocamally-deficient mice.

[5] abbreviates: 0.32 mg/kg, SC, vs scopolamine 0.1 mg/kg, five-minute test.
[6] abbreviates: 3.2 mg/kg, SC, vs scopolamine 0.1 mg/kg, five-minute test.
The mark [7] stands for this setting: 32 mg/kg, SC, vs scopolamine 0.1 mg/kg, five-minute test.

Where two headings read alike, the source gives them in different places.

As to `c1ccc(Nc2ccncc2)cc1` [Compound 1, N-Phenyl-4-pyridinamine], the inhibition in vivo at 0.32 mg/kg in assay [1] (setting [5]) amounted to 27%. In assay [1] (setting [6]), the inhibition in vivo at 3.2 mg/kg worked out at 22%. Further, the inhibition in vivo at 32 mg/kg in assay [1] (setting [7]) stood at 57%.
On the same counts, the results for `Cc1cccc(Nc2ccncc2)c1` [Compound 2, N-(3-Methylphenyl)-4-pyridinamine] are 52%, 36% and 66%.
For `Cc1ccc(Nc2ccncc2)cc1` [Compound 3, N-(4-Methylphenyl)-4-pyridinamine], in assay [2], the α1/α2 is 43 and the IC50 amounted to 37 nM. The IC50 in assay [3] was determined as 1600 nM. Moreover, the inhibition in vivo at 0.32 mg/kg in assay [1] (setting [5]) was 10%. Further, in assay [1] (setting [6]), the inhibition in vivo at 3.2 mg/kg was 25%. Moreover, the inhibition in vivo at 32 mg/kg in assay [1] (setting [7]) was 100%.
For the molecule `Clc1cccc(Nc2ccncc2)c1` [Compound 4, N-(3-Chlorophenyl)-4-pyridinamine], the minimal effective dose in assay [4] was determined as 3.2 mg/kg. The “selectivity for binding at the α2-adrenergic site” value in assay [2] (from data in Table 2) was “high degree of selectivity for binding at the α2-adrenergic site”. Besides, in assay [2], the α1/α2 turned out to be 56 and the IC50 came to 133 nM. Further, in assay [3], the IC50 stood at 7500 nM. For the same molecule, in assay [1] (setting [5]), the inhibition in vivo at 0.32 mg/kg worked out at 0%. For the same molecule, the inhibition in vivo at 3.2 mg/kg in assay [1] (setting [6]) was 27%. Moreover, in assay [1] (setting [7]), the inhibition in vivo at 32 mg/kg was 75%.
`FC(F)(F)c1cccc(Nc2ccncc2)c1` [Compound 5, N-[3-(Trifluoromethyl)phenyl]-4-pyridin-amine]: in assay [1] (setting [5]), the inhibition in vivo at 0.32 mg/kg is 0%. In addition, the inhibition in vivo at 3.2 mg/kg in assay [1] (setting [6]) amounted to 0%. The inhibition in vivo at 32 mg/kg in assay [1] (setting [7]) is 57%.
As to `FC(F)(F)c1ccc(Nc2ccncc2)cc1` [Compound 6, N-[4-(Trifluoromethyl)phenyl]-4-pyridin-amine], the inhibition in vivo at 0.32 mg/kg in assay [1] (setting [5]) was 0%. Also, the inhibition in vivo at 3.2 mg/kg in assay [1] (setting [6]) stood at 16%. In addition, the inhibition in vivo at 32 mg/kg in assay [1] (setting [7]) is 55%.
Take `COc1cccc(Nc2ccncc2)c1` [Compound 7, N-(3-Methoxyphenyl)-4-pyridinamine]: the inhibition in vivo at 0.32 mg/kg in assay [1] (setting [5]) was 23%. In addition, in assay [1] (setting [6]), the inhibition in vivo at 3.2 mg/kg was found to be 62%. The inhibition in vivo at 32 mg/kg in assay [1] (setting [7]) was determined as 31%.
The like results for `O=[N+]([O-])c1cccc(Nc2ccncc2)c1` [Compound 8, N-(3-Nitrophenyl)-4-pyridinamine] were, in that order, 40%, 39% and 70%.
On the same counts, the results for `Nc1ccccc1Nc1ccncc1` [Compound 9, N-4-Pyridinyl-1,2-benzenediamine] are 15%, 18% and 72%.
The like results for `Nc1cccc(Nc2ccncc2)c1` [Compound 10, N-4-Pyridinyl-1,3-benzenediamine] were, in that order, 47%, 0% and 41%.
`CN(C)c1cccc(Nc2ccncc2)c1` [Compound 11, N,N-Dimethyl-N'-4-pyridinyl-1,3-benzene-diamine]: the inhibition in vivo at 0.32 mg/kg in assay [1] (setting [5]) was 15%. Also, in assay [1] (setting [6]), the inhibition in vivo at 3.2 mg/kg was found to be 4%. Moreover, the inhibition in vivo at 32 mg/kg in assay [1] (setting [7]) was 61%.
The like results for `COC(=O)c1cccc(Nc2ccncc2)c1` [Compound 12, 3-(4-Pyridinylamino)benzoic acid, methyl ester] were, in that order, 15%, 0% and 8%.
The like results for `Clc1ccc(Nc2ccncc2)c(Cl)c1` [Compound 13, N-(2,4-Dichlorophenyl)-4-pyridinamine] were, in that order, 0%, 24% and 0%.
As for `Clc1ccc(Nc2ccncc2)cc1Cl` [Compound 14, N-(3,4-Dichlorophenyl)-4-pyridinamine], in assay [2], the α1/α2 is above 8.5 and the IC50 amounted to 118 nM. Besides, in assay [3], the IC50 was above 1000 nM. In addition, in assay [1] (setting [5]), the inhibition in vivo at 0.32 mg/kg amounted to 31%. Further, the inhibition in vivo at 3.2 mg/kg in assay [1] (setting [6]) was found to be 37%. Besides, in assay [1] (setting [7]), the inhibition in vivo at 32 mg/kg was 64%.
Regarding `O=[N+]([O-])c1cc(Nc2ccncc2)ccc1Cl` [Compound 15, N-(4-Chloro-3-nitrophenyl)-4-pyridinamine], in assay [1] (setting [5]), the inhibition in vivo at 0.32 mg/kg is 26%. In assay [1] (setting [6]), the inhibition in vivo at 3.2 mg/kg was determined as 0%. The inhibition in vivo at 32 mg/kg in assay [1] (setting [7]) was 0%.
As to `Cc1ccc(Nc2ccncc2)c([N+](=O)[O-])c1` [Compound 16, N-(4-Methyl-2-nitrophenyl)-4-pyridinamine], the inhibition in vivo at 0.32 mg/kg in assay [1] (setting [5]) is 0%. The inhibition in vivo at 3.2 mg/kg in assay [1] (setting [6]) came out at 3%. In assay [1] (setting [7]), the inhibition in vivo at 32 mg/kg is 14%.
With `CC(=O)N(c1ccncc1)c1ccc(C)cc1` [Compound 17, N-(4-Methylphenyl)-N-4-pyridinylacetamide], in assay [2], the α1/α2 is above 1.9 and the IC50 was found to be 5400 nM. Further, the IC50 in assay [3] was above 10000 nM. The inhibition in vivo at 0.32 mg/kg in assay [1] (setting [5]) was found to be 35%. Also, in assay [1] (setting [6]), the inhibition in vivo at 3.2 mg/kg amounted to 56%. In addition, the inhibition in vivo at 32 mg/kg in assay [1] (setting [7]) came out at 21%.
Regarding `CC(=O)N(c1ccncc1)c1ccc(Cl)c(Cl)c1` [Compound 18, N-(3,4-Dichlorophenyl)-N-4-pyridinylacet-amide], in assay [1] (setting [5]), the inhibition in vivo at 0.32 mg/kg worked out at 33%. Besides, in assay [1] (setting [6]), the inhibition in vivo at 3.2 mg/kg amounted to 34%. In addition, the inhibition in vivo at 32 mg/kg in assay [1] (setting [7]) came to 30%.
On to `COC(=O)N(c1ccncc1)c1ccc(C)cc1` [Compound 19, (4-Methylphenyl)-4-pyridinylcarbamic acid, methyl ester], for which, in assay [1] (sc), the inhibition in vivo at 0.32 mg/kg amounted to 36%, the inhibition in vivo at 3.2 mg/kg came to 20% and the inhibition in vivo at 32 mg/kg was found to be 17%.
On the same counts, the results for `COC(=O)N(c1ccncc1)c1ccc(Cl)c(Cl)c1` [Compound 20, (3,4-Dichlorophenyl)-4-pyridinylcarbamic acid, methyl ester] are 6%, 0% and 9%.
For the molecule `COC(=O)C1=CCCN(C)C1` [arecoline, reference compound], the “reversal of scopolamine swimming hyperactivity” value in assay [1] is recorded as “can be reversed”.
Same read-out and setting: to `CN(C)C(=O)Oc1cccc([N+](C)(C)C)c1` [neostigmine, reference compound] belongs “does not reverse the effect of scopolamine”; to `CNC(=O)Oc1ccc2c(c1)[C@]1(C)CCN(C)[C@@H]1N2C` [physostigmine, reference compound], “can be reversed”.
As for `C[N+]1(C)C2CC(OC(=O)C(CO)c3ccccc3)CC1C1OC12` (stereo not shown) [scopolamine methyl nitrate, reference compound], in assay [1] (same conditions as scopolamine), the “behavioral changes” value is recorded as “does not produce any behavioral changes”.
For the molecule `CN1[C@@H]2C[C@@H](OC(=O)[C@H](CO)c3ccccc3)C[C@H]1[C@@H]1O[C@@H]12` [scopolamine, reference compound], in assay [1] (scopolamine 0.1 mg/kg, five-minute test period, rats), the “increase of swimming distances above baseline values” is on record as 75-125%.
